The source of these data is US6355673B1, “Substituted diaminocarboxylic acids” (Aventis Pharma Deutschland GmbH, priority 1997, dated 2002).

Usually IC50 stands for the point on the concentration scale where inhibition reaches its midpoint.

The structures appear in SMILES notation.

Experiment [1] has as its target T1, neutrophil collagenase (MMP-8) (Homo sapiens, UniProt P22894).
T1 construct: enzymatic activity of the catalytic domains of human stromelysin and of neutrophil collagenase; made in house
As to the kind of experiment: Enzyme inhibition of the catalytic domain of neutrophil collagenase (fluorogenic substrate). The experiment is classed as biochemical. As to conditions: 15 min preincubation, pH=6.5, fluorescence 328 nm (ex)/393 nm (em). The method, then: (§1) Preparation and determination of the enzymatic activity of the catalytic domains of human stromelysin and of neutrophil collagenase.
(§2) The enzymes stromelysin (MMP-3) and neutrophil collagenase (MMP-8) were prepared according to Ye et al. (Biochemistry; 31 (1992) pages 11231-11235). To measure the enzyme activity or the enzyme inhibitor action, 70 μl of buffer solution and 10 μl of enzyme solution are incubated for 15 min with 10 μl of a 10% strength (v/v) aqueous dimethyl sulfoxide solution, which optionally contains the enzyme inhibitor. After addition of 10 μl of a 10% strength (v/v) aqueous dimethyl sulfoxide solution which contains 1 mil/L of the substrates, the enzyme reaction is monitored by fluorescence spectroscopy (328 nm (ex)/393 nm(em)). The enzyme activity is shown as the extinction increase/min. The IC50 values listed in Table 2 are determined as those inhibitor concentrations which in each case lead to a 50% inhibition of the enzyme.
(§3) The buffer solution contains 0.05% Brij (Sigma, Deisenhofen, Germany) and also 0.1 mol/L tris/HCl, 0.1 mol/L NaCl, 0.01 mol/L CaCl2 and 0.1 mol/L piperazine-N,N′-bis(2-ethanesulfonic acid) (pH=6.5). The enzyme solution contains 5 μg/ml of one of the enzyme domains prepared according to Ye et al. The substrate solution contains 1 mil/L of the fluorogenic substrate (7-methoxycoumarin-4-yl)acetyl-Pro-Leu-Gly-Leu-3-(2′,4′-dinitrophenyl)-L-2,3-diaminopropionyl-Ala-Arg-NH2 (Bachem, Heidelberg, Germany).

In another experiment the target is T2, stromelysin (MMP-3) (Homo sapiens, UniProt P08254).
T2 construct: enzymatic activity of the catalytic domains of human stromelysin and of neutrophil collagenase; made in house
As to the kind of experiment: Enzyme inhibition of the catalytic domain of human stromelysin (fluorogenic substrate). The format is biochemical. As to conditions: 15 min preincubation, pH=6.5, fluorescence 328 nm (ex)/393 nm (em). As for the experimental part:
as §1, §2, §3

T1 sequence (P22894 100-262 limits assumed): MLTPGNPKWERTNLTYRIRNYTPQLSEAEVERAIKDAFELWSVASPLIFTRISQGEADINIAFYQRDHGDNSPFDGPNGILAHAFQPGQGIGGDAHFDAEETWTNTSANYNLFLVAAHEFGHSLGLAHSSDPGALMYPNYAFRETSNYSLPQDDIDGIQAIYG
T2 sequence (P08254 100-272 limits assumed): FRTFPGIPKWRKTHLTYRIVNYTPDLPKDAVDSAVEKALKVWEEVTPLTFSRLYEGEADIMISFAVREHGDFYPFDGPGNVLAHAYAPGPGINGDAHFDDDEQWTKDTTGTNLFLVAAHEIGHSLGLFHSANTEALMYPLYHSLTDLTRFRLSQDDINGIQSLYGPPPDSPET

For `O=C(CC[C@@H](C(=O)O)c1ccccc1)NCCC[C@H](NS(=O)(=O)c1ccc(-c2ccc(Cl)cc2)cc1)C(=O)O` [Example 80], the figures for the IC50 (in experiment [1]; against stromelysin (MMP-3)) were 3 nM and 10 nM, respectively.

As to `CC(C)(CC(=O)O)CC(=O)NCCC[C@H](NS(=O)(=O)c1ccc(-c2ccc(Cl)cc2)cc1)C(=O)O` [Example 81], the IC50 in experiment [1] was 3 nM; against stromelysin (MMP-3), 30 nM.

On to `CCC(=O)NCCC[C@H](NS(=O)(=O)c1ccc(-c2ccc(Cl)cc2)cc1)C(=O)O` [Example 82], for which the concentration for half-maximal inhibition (IC50) in experiment [1] amounted to 4 nM; against stromelysin (MMP-3) it was 20 nM.

Regarding `O=C(NCCC[C@H](NS(=O)(=O)c1ccc(-c2ccc(Cl)cc2)cc1)C(=O)O)c1ccccc1Cl` [Example 83], the IC50 worked out at 3 nM in experiment [1] and 7 nM at stromelysin (MMP-3).

As to `O=C(NCCC[C@H](NS(=O)(=O)c1ccc(-c2ccc(Cl)cc2)cc1)C(=O)O)C1CSCN1` (stereo partly drawn) [Example 84], the figures for the IC50 (in experiment [1]; against stromelysin (MMP-3)) were 4 nM and 20 nM, respectively.

As for `N#Cc1ccc(C(=O)NCCC[C@H](NS(=O)(=O)c2ccc(-c3ccc(Cl)cc3)cc2)C(=O)O)cc1` [Example 85], the figures for the IC50 (in experiment [1]; against stromelysin (MMP-3)) were 5 nM and 20 nM, respectively.

As for `O=C(NCCC[C@H](NS(=O)(=O)c1ccc(-c2ccc(Cl)cc2)cc1)C(=O)O)c1ccc(F)cc1F` [Example 86], the IC50 in experiment [1] worked out at 4 nM; on stromelysin (MMP-3), 20 nM.

Take `O=C(NCCC[C@H](NS(=O)(=O)c1ccc(-c2ccc(Cl)cc2)cc1)C(=O)O)c1ccc(F)c(F)c1` [Example 87]: the IC50 amounted to 10 nM in experiment [1] and 30 nM against stromelysin (MMP-3).

Take `O=C(NCCC[C@H](NS(=O)(=O)c1ccc(-c2ccc(Cl)cc2)cc1)C(=O)O)c1ccccc1F` [Example 88]: the IC50 in experiment [1] was found to be 3 nM; on stromelysin (MMP-3), 10 nM.

Take `O=C(Cc1ccc(Cl)cc1)NCCC[C@H](NS(=O)(=O)c1ccc(-c2ccc(Cl)cc2)cc1)C(=O)O` [Example 89]: the results for the IC50 (in experiment [1]; against stromelysin (MMP-3)) were 10 nM and 30 nM, respectively.

Consider `O=C(NCCC[C@H](NS(=O)(=O)c1ccc(-c2ccc(Cl)cc2)cc1)C(=O)O)c1ccc(Cl)cc1` [Example 90], for which the values for the IC50 (in experiment [1]; at stromelysin (MMP-3)) were 5 nM and 20 nM, respectively.

Turning to `O=C(NCCC[C@H](NS(=O)(=O)c1ccc(-c2ccc(Cl)cc2)cc1)C(=O)O)c1cccc(Cl)c1` [Example 91], the results for the IC50 (in experiment [1]; against stromelysin (MMP-3)) were 5 nM and 30 nM, respectively.

As for `O=C(NCCC[C@H](NS(=O)(=O)c1ccc(-c2ccc(Cl)cc2)cc1)C(=O)O)c1ccc(Cl)c(Cl)c1` [Example 92], the 50% inhibitory concentration (IC50) in experiment [1] was found to be 20 nM; against stromelysin (MMP-3), 40 nM.

For the compound `O=C(NCCC[C@H](NS(=O)(=O)c1ccc(-c2ccc(Cl)cc2)cc1)C(=O)O)c1cc(F)cc(F)c1` [Example 93], the figures for the IC50 (in experiment [1]; against stromelysin (MMP-3)) were 4 nM and 20 nM, respectively.

Consider `O=C(NCCC[C@H](NS(=O)(=O)c1ccc(-c2ccc(Cl)cc2)cc1)C(=O)O)c1cc(F)ccc1F` [Example 94], for which the IC50 was found to be 5 nM in experiment [1] and 30 nM at stromelysin (MMP-3).

`O=C(NCCC[C@H](NS(=O)(=O)c1ccc(-c2ccc(Cl)cc2)cc1)C(=O)O)c1cccc(F)c1` [Example 95]: the values for the IC50 (in experiment [1]; on stromelysin (MMP-3)) were 4 nM and 20 nM, respectively.

In the case of `O=C(NCCC[C@H](NS(=O)(=O)c1ccc(-c2ccc(Cl)cc2)cc1)C(=O)O)C1Cc2ccccc2N1` (stereo partly drawn) [Example 96], the figures for the IC50 (in experiment [1]; at stromelysin (MMP-3)) were 6 nM and 20 nM, respectively.

For `O=C(NCCC[C@H](NS(=O)(=O)c1ccc(-c2ccc(Cl)cc2)cc1)C(=O)O)c1cccc(F)c1F` [Example 97], the values for the IC50 (in experiment [1]; against stromelysin (MMP-3)) were 4 nM and 20 nM, respectively.

Take `COCC(=O)NCCC[C@H](NS(=O)(=O)c1ccc(-c2ccc(Cl)cc2)cc1)C(=O)O` [Example 98]: the IC50 in experiment [1] turned out to be 3 nM; against stromelysin (MMP-3), 10 nM.

Take `O=C(NCCC[C@H](NS(=O)(=O)c1ccc(-c2ccc(Cl)cc2)cc1)C(=O)O)c1ccco1` [Example 99]: the results for the IC50 (in experiment [1]; against stromelysin (MMP-3)) were 2 nM and 5 nM, respectively.

For the compound `Cc1ccsc1C(=O)NCCC[C@H](NS(=O)(=O)c1ccc(-c2ccc(Cl)cc2)cc1)C(=O)O` [Example 100], the concentration for half-maximal inhibition (IC50) in experiment [1] turned out to be 2 nM; on stromelysin (MMP-3), 4 nM.

As to `O=C(/C=C/c1ccccc1)NCCC[C@H](NS(=O)(=O)c1ccc(-c2ccc(Cl)cc2)cc1)C(=O)O` [Example 101], the IC50 in experiment [1] was 10 nM; against stromelysin (MMP-3), 40 nM.

On to `O=C(NCCC[C@H](NS(=O)(=O)c1ccc(-c2ccc(Cl)cc2)cc1)C(=O)O)c1ccc(O)cc1` [Example 102], for which the IC50 in experiment [1] is 5 nM; at stromelysin (MMP-3) it was 20 nM.

For the compound `O=C(NCCC[C@H](NS(=O)(=O)c1ccc(-c2ccc(Cl)cc2)cc1)C(=O)O)c1ccc(Cc2ccccc2)cc1` [Example 103], the IC50 in experiment [1] came out at 60 nM; against stromelysin (MMP-3), 70 nM.

Consider `COc1ccc(C(=O)NCCC[C@H](NS(=O)(=O)c2ccc(-c3ccc(Cl)cc3)cc2)C(=O)O)c(OC)c1` [Example 104], for which the values for the IC50 (in experiment [1]; at stromelysin (MMP-3)) were 8 nM and 30 nM, respectively.

Turning to `O=C(NCCC[C@H](NS(=O)(=O)c1ccc(-c2ccc(Cl)cc2)cc1)C(=O)O)c1ccc(OC(F)(F)F)cc1` [Example 105], the IC50 came out at 10 nM in experiment [1] and 40 nM at stromelysin (MMP-3).

Turning to `CCCCOc1ccc(C(=O)NCCC[C@H](NS(=O)(=O)c2ccc(-c3ccc(Cl)cc3)cc2)C(=O)O)cc1` [Example 106], the IC50 in experiment [1] was 30 nM; against stromelysin (MMP-3), 60 nM.

With `Nc1ccc(C(=O)NCCC[C@H](NS(=O)(=O)c2ccc(-c3ccc(Cl)cc3)cc2)C(=O)O)cc1` [Example 107], the values for the IC50 (in experiment [1]; against stromelysin (MMP-3)) were 4 nM and 10 nM, respectively.

Take `O=C(CC1CCCCC1)NCCC[C@H](NS(=O)(=O)c1ccc(-c2ccc(Cl)cc2)cc1)C(=O)O` [Example 108]: the IC50 was determined as 5 nM in experiment [1] and 20 nM against stromelysin (MMP-3).

For `O=C(NCCC[C@H](NS(=O)(=O)c1ccc(-c2ccc(Cl)cc2)cc1)C(=O)O)c1ccc(C(F)(F)F)cc1F` [Example 109], the IC50 was determined as 7 nM in experiment [1] and 20 nM against stromelysin (MMP-3).

Turning to `O=C(NCCC[C@H](NS(=O)(=O)c1ccc(-c2ccc(Cl)cc2)cc1)C(=O)O)c1ccc2ccccc2c1` [Example 110], the values for the IC50 (in experiment [1]; at stromelysin (MMP-3)) were 20 nM and 40 nM, respectively.

On to `O=C(Cc1cccs1)NCCC[C@H](NS(=O)(=O)c1ccc(-c2ccc(Cl)cc2)cc1)C(=O)O` [Example 111], for which the IC50 in experiment [1] amounted to 3 nM; on stromelysin (MMP-3), 10 nM.

Consider `O=C(O)[C@H](CCCN(Cc1ccccc1)C(=O)C1CC1)NS(=O)(=O)c1ccc(-c2ccc(Cl)cc2)cc1` [Example 113], for which the IC50 in experiment [1] stood at 3 nM; against stromelysin (MMP-3) it was 5 nM.

With `O=C(O)[C@H](CCCn1sc2ccccc2c1=O)NS(=O)(=O)c1ccc(-c2ccc(Cl)cc2)cc1` [Example 114], the IC50 in experiment [1] stood at 2 nM; against stromelysin (MMP-3) it was 5 nM.

Regarding `O=C(NCCC[C@H](NS(=O)(=O)c1ccc(-c2ccc(Cl)cc2)cc1)C(=O)O)c1ccc(Cl)cc1Cl` [Example 115], the IC50 is 3 nM in experiment [1] and 5 nM against stromelysin (MMP-3).

As for `O=C(Cc1ccc(F)cc1)NCCC[C@H](NS(=O)(=O)c1ccc(-c2ccc(Cl)cc2)cc1)C(=O)O` [Example 116], the results for the IC50 (in experiment [1]; against stromelysin (MMP-3)) were 4 nM and 20 nM, respectively.

With `O=C(NCCC[C@H](NS(=O)(=O)c1ccc(-c2ccc(Cl)cc2)cc1)C(=O)O)c1ccccc1` [Example 117], the IC50 in experiment [1] is 2 nM; on stromelysin (MMP-3), 9 nM.

Turning to `CC(C)COC(=O)NCCC[C@H](NS(=O)(=O)c1ccc(-c2ccc(Cl)cc2)cc1)C(=O)O` [Example 118], the IC50 was 4 nM in experiment [1] and 10 nM on stromelysin (MMP-3).

On to `Cc1ccc(C(=O)NCCC[C@H](NS(=O)(=O)c2ccc(-c3ccc(Cl)cc3)cc2)C(=O)O)s1` [Example 120], for which the IC50 in experiment [1] worked out at 4 nM; on stromelysin (MMP-3), 20 nM.

In the case of `O=C(NCCC[C@H](NS(=O)(=O)c1ccc(-c2ccc(Cl)cc2)cc1)C(=O)O)c1cccs1` [Example 122], the figures for the IC50 (in experiment [1]; on stromelysin (MMP-3)) were 2 nM and 3 nM, respectively.

Consider `O=C(NCCC[C@H](NS(=O)(=O)c1ccc(-c2ccc(Cl)cc2)cc1)C(=O)O)c1ccc2[nH]nnc2c1` [Example 125], for which the IC50 (in experiment [1]; on stromelysin (MMP-3)) was 10 nM each time.

For the compound `O=C(NCCC[C@H](NS(=O)(=O)c1ccc(-c2ccc(Cl)cc2)cc1)C(=O)O)c1ccc2ncccc2c1` [Example 126], the half-maximal inhibitory concentration (IC50) in experiment [1] was determined as 10 nM; against stromelysin (MMP-3), 30 nM.

On to `O=C(NCCC[C@H](NS(=O)(=O)c1ccc(-c2ccc(Cl)cc2)cc1)C(=O)O)c1ccncc1` [Example 127], for which the IC50 in experiment [1] was determined as 3 nM; on stromelysin (MMP-3), 20 nM.

Consider `O=C(O)[C@H](CCCNC(=O)N1CCOCC1)NS(=O)(=O)c1ccc(-c2ccc(Cl)cc2)cc1` [Example 128], for which the results for the IC50 (in experiment [1]; at stromelysin (MMP-3)) were 2 nM and 5 nM, respectively.

In the case of `O=C(NCCC[C@H](NS(=O)(=O)c1ccc(-c2ccc(Cl)cc2)cc1)C(=O)O)c1ccccc1C(F)(F)F` [Example 129], the results for the IC50 (in experiment [1]; against stromelysin (MMP-3)) were 2 nM and 10 nM, respectively.
